According to paper PMC5705954, “Investigation of Non-Covalent Interactions of Aflatoxins (B1, B2, G1, G2, and M1) with Serum Albumin” (Toxins, 2017):
Read-outs that look alike come from different tables or passages of the source.

Legend:
[1] = biological target: T1, human serum albumin (HSA) (Homo sapiens, UniProt P02768); parameters: purchased Sigma-Aldrich; settings: cited from earlier work
[2] = biological target: warfarin-HSA interaction (Sudlow's Site I) (Homo sapiens, UniProt P02768); assay type: binding
Sequence of warfarin-HSA interaction (Sudlow's Site I) (P02768 25-609 limits assumed): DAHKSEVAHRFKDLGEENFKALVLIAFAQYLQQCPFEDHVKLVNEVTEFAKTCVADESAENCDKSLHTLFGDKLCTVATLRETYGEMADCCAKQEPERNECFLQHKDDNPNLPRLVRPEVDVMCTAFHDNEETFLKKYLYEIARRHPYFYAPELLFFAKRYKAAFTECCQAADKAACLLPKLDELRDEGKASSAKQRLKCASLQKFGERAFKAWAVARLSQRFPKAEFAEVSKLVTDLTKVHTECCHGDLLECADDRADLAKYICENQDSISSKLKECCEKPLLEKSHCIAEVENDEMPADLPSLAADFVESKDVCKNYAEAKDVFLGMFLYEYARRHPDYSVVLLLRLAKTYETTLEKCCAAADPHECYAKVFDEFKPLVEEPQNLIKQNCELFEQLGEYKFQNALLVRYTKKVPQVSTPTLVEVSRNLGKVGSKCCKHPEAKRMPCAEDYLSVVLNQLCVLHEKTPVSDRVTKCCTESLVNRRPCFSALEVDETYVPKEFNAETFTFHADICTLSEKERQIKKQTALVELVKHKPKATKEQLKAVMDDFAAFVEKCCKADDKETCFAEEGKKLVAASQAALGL

[3] = biological target: T1, human serum albumin (HSA); assay: Fluorescence quenching of HSA by aflatoxins; assay type: binding; parameters: purchased Sigma-Aldrich; settings: pH 7.4
Method: In order to characterize aflatoxin-HSA interactions, fluorescence quenching studies were performed. Increasing aflatoxin concentrations (0–10 μM) were added to a standard amount of HSA (2 μM) then fluorescence emission spectra of HSA were recorded (λexc = 280 nm). […] To exclude the possible involvement of the inner filter effect, fluorescence emission intensities were corrected based on the absorbance of aflatoxins (Equation (1)). […].
Fluorescence measurements were performed employing Hitachi F-4500 fluorescence spectrophotometer. UV-Vis spectra were recorded applying Specord Plus 210 (Analytic Jena AG, Jena, Germany) spectrophotometer. All measurements were carried out at 25 °C.
During fluorescence quenching experiments, emission intensities of albumin were determined in the presence of 2 μM albumin with and without aflatoxins (0–10 μM) using 280 and 334 nm as excitation and emission wavelengths, respectively. Inner filter effects of aflatoxins were eliminated applying the following equation [33]:(1) Icor=Iobs×e^(Aexc+Aem)/2 where Icor and Iobs are the corrected and observed fluorescence emission intensities, respectively; while Aexc and Aem are the absorption of aflatoxins at 280 and 334 nm, respectively.
Complex formations of aflatoxins with albumins were investigated applying the Stern-Volmer equation:(2) I0/I=1+KSV×[Q] where I and I0 denote the fluorescence intensities of albumin with and without aflatoxins, respectively. KSV (with the unit of dm^3/mol) is the Stern-Volmer quenching constant and [Q] is the molar concentration of aflatoxins.
Association constants (Ka) and number of binding sites (n) were determined by linear fitting, employing the double logarithmic Stern-Volmer equation [33]:(3) log(I0−I)/I=logKa+n×log[Q] where I and I0 denote the fluorescence intensities of albumin with and without aflatoxins, respectively; while [Q] is the molar concentration of aflatoxins.
Thereafter, binding constants of aflatoxin-albumin complexes were quantified by Hyperquad2006 program package, assuming 1:1 stoichiometry, (4) I=I0+(IHG−I0)/2⋅[H]0⋅([H]0+[G]0+1/K−([H]0+[G]0+1/K)^2−4⋅[H]0⋅[G]0) where, I0 and I denote the emission intensities of albumin at 334 nm in the absence and presence of aflatoxins, respectively; IHG is the emission intensity of pure aflatoxin-albumin complex at 334 nm (calculated by the Hyperquad2006); K denotes the binding constant (with the unit of dm^3/mol); [H]0 and [G]0 are the total concentrations of albumin and aflatoxin, respectively.

[4] = biological target: T1, human serum albumin (HSA); settings: cited from earlier work
[5] = biological target: bovine serum albumin (BSA) (Bos taurus, UniProt P02769); assay type: binding; settings: pH 7.4
Sequence of bovine serum albumin (BSA) (P02769 25-607 limits assumed): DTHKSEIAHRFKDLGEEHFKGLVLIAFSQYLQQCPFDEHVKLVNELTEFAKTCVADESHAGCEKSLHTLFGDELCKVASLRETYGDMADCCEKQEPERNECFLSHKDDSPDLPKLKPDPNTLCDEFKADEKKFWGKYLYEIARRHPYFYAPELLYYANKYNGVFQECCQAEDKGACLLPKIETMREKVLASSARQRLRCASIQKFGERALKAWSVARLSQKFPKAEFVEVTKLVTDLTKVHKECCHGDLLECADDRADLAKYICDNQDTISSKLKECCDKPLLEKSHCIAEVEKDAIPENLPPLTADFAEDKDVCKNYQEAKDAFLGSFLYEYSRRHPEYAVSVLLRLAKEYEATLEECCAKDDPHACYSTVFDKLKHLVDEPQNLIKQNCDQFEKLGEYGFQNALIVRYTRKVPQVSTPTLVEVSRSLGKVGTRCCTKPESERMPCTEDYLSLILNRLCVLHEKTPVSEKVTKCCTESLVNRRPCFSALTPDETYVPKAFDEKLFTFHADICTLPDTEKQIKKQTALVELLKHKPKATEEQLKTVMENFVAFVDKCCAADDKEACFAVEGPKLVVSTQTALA

[6] = biological target: porcine serum albumin (PSA) (Sus scrofa, UniProt P08835); assay type: binding; settings: pH 7.4
Sequence of porcine serum albumin (PSA) (P08835 25-607 limits assumed): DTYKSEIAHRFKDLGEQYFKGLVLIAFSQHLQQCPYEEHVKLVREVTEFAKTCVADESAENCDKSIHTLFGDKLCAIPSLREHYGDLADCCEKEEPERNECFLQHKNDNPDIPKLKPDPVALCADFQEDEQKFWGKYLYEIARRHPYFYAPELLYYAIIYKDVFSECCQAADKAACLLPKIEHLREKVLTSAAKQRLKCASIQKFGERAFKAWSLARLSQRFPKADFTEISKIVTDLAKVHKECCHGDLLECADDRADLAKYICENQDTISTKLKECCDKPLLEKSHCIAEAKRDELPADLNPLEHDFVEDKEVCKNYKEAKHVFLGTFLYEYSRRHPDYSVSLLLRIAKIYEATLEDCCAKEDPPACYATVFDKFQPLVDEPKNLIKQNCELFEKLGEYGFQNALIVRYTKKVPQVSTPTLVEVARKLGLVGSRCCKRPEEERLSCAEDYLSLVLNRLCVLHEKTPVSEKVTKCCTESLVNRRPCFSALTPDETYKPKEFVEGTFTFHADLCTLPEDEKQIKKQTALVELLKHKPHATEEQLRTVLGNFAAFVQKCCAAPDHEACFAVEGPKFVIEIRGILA

rat serum albumin (RSA) = rat serum albumin (RSA) (Rattus norvegicus, UniProt P02770); assay type: binding; settings: pH 7.4
Sequence of rat serum albumin (RSA) (P02770 25-608 limits assumed): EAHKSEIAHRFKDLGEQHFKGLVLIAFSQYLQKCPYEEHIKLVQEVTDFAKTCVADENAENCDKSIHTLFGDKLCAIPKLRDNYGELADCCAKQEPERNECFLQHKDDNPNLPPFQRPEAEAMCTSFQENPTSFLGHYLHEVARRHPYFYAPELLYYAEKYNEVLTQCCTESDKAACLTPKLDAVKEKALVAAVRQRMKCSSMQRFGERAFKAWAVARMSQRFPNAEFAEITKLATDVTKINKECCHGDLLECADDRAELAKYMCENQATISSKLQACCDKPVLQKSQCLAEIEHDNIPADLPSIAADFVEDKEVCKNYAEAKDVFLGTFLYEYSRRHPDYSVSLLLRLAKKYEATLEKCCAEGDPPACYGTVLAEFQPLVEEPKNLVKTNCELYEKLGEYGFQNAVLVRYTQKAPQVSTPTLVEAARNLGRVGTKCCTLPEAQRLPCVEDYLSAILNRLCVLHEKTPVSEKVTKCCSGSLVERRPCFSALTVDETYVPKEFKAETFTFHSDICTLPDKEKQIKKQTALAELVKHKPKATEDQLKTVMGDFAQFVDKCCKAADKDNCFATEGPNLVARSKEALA

[7] = biological target: T1, human serum albumin (HSA); assay: Thermodynamic studies (van't Hoff) of complex formation with HSA; assay type: binding; parameters: purchased Sigma-Aldrich
Method: In order to investigate the temperature dependence of AFB1-HSA interaction, binding constants were determined between 25 and 40 °C. […] Using the temperature-dependence of the stability constants, the thermodynamic parameters associated to the interaction of AFB1 with HSA was also determined using the van’t Hoff equation (Equation (5)). […]. This value is within the typical range of non-covalent interactions. ΔH and ΔS values of the AFB1-HSA complex formation were −10.48 kJ mol^−1 and 55.1 JK^−1 mol^−1, respectively. Comparing these values with the parameters obtained for previously examined mycotoxin-albumin complexes, namely citrinin-HSA and zearalenone-HSA (Table 1), we can conclude that the smaller enthalpy change is associated with higher entropy gain in agreement with the enthalpy-entropy compensation. […]
Fluorolog τ3 spectrofluorometric system (Jobin-Yvon/SPEX) was applied during thermodynamic studies using 280 nm excitation wavelength. […] The binding constants were determined by the Hyperquad2006 program package (Equation (4)). The enthalpy and entropy changes of complex formation between AFB1 and HSA molecules were calculated as follows: the logarithms of binding constants (logK) at different temperatures were plotted against the reciprocal temperature according to the van’t Hoff equation. […]

[8] = previously reported data ref 20
[9] = previously reported data ref 16

T1 sequence (P02768 25-609): as the sequence (P02768 25-609 limits assumed) above

| Structure (SMILES) | effect on fluorescence signal of HSA-bound warfarin at 379 nm (displacement of WAR from HSA) [2] | logK (binding constant) [3] | logKSV (Stern-Volmer quenching constant) [3] | logKa (association constant) [3] | n (number of binding sites) [3] | other results |
| --- | --- | --- | --- | --- | --- | --- |
| C[C@H]1CCCC(=O)CCC/C=C/c2cc(O)cc(O)c2C(=O)O1 [zearalenone] | – | – | – | – | – | ΔG (298.16 K) of complex formation with HSA [1, 8]: -6.946 kcal/mol; ΔH of complex formation with HSA [1, 8]: -7.192 kcal/mol; ΔS of complex formation with HSA [1, 8]: −3.50 JK^−1 mol^−1 |
| COc1cc2c(c3oc(=O)c4c(c13)CCOC4=O)[C@@H]1CCO[C@@H]1O2 [AFG2, aflatoxin G2] | considerably decreased the fluorescence intensity of WAR at 379 nm | 4.34 ± 0.01 | 3.96 ± 0.04 | 4.04 ± 0.07 | 1.017 ± 0.025 | – |
| CC1=C2C(=CO[C@H](C)[C@H]2C)C(O)=C(C(=O)O)C1=O [citrinin] | – | – | – | – | – | ΔG (298.16 K) of complex formation with HSA [1, 9]: -7.161 kcal/mol; ΔH of complex formation with HSA [1, 9]: -5.772 kcal/mol; ΔS of complex formation with HSA [1, 9]: 20.90 JK^−1 mol^−1 |
| COc1cc2c(c3oc(=O)c4c(c13)CCC4=O)[C@@]1(O)C=CO[C@H]1O2 [AFM1, aflatoxin M1] | considerably decreased the fluorescence intensity of WAR at 379 nm | 4.52 ± 0.01 | 4.28 ± 0.01 | 4.26 ± 0.00 | 1.004 ± 0.013 | – |
| COc1cc2c(c3oc(=O)c4c(c13)CCOC4=O)C1C=COC1O2 (stereo not shown) [AFG1, aflatoxin G1] | Very similar spectroscopic changes | 4.58 ± 0.01 | 4.33 ± 0.04 | 4.43 ± 0.03 | 1.020 ± 0.019 | – |
| CN(C)c1ccc(N=Nc2ccc(S(=O)(=O)[O-])cc2)cc1.[Na+] [MO, methyl orange] | – | – | – | – | – | logK of MO-HSA complex [4]: ~ 5 |
| COc1cc2c(c3oc(=O)c4c(c13)CCC4=O)[C@@H]1CCO[C@@H]1O2 [AFB2, aflatoxin B2] | considerably decreased the fluorescence intensity of WAR at 379 nm | 4.55 ± 0.01 | 4.21 ± 0.02 | 4.40 ± 0.08 | 1.054 ± 0.000 | – |
| COc1cc2c(c3oc(=O)c4c(c13)CCC4=O)[C@H]1C=CO[C@H]1O2 [AFB1, aflatoxin B1] | significant decrease of the fluorescence signal at 379 nm | 4.65 ± 0.01 | 4.44 ± 0.06 | 4.46 ± 0.08 | 1.005 ± 0.029 | logK (binding constant) [5]: 4.63 ± 0.01; logKSV (Stern-Volmer quenching constant) [5]: 4.41 ± 0.06; logKa (association constant) [5]: 4.44 ± 0.01; n (number of binding sites) [5]: 1.006 ± 0.015; logK (binding constant) [6]: 4.62 ± 0.01; logKSV (Stern-Volmer quenching constant) [6]: 4.45 ± 0.00; logKa (association constant) [6]: 4.52 ± 0.10; n (number of binding sites) [6]: 1.023 ± 0.034; logK (binding constant) (rat serum albumin (RSA)): 4.91 ± 0.01; logKSV (Stern-Volmer quenching constant) (rat serum albumin (RSA)): 4.82 ± 0.01; logKa (association constant) (rat serum albumin (RSA)): 4.90 ± 0.11; n (number of binding sites) (rat serum albumin (RSA)): 0.998 ± 0.051; ΔG (298.16 K) of complex formation with HSA [7]: -6.429 kcal/mol; ΔH of complex formation with HSA [7]: -2.505 kcal/mol |
